The values that follow come from publication PMC7231190, “The Medium-Chain Fatty Acid Receptor GPR84 Mediates Myeloid Cell Infiltration Promoting Steatohepatitis and Fibrosis” (Journal of Clinical Medicine, 2020).

Counter-ions that a name gives are not always drawn.

In assay [1] the target is T1, mGPR84 (Mus musculus, UniProt Q8CIM5).
T1 construct: expressed in transfected cells; host or cells: CHO-K1
Kind of assay: cAMP HTRF assay, CHO-K1-mGPR84 cell membrane. The class given is biochemical.

Assay [2] has as its system lung fibrosis mouse models. Also noted: method as in earlier work. Conditions: two mouse models, therapeutic setting; cited from earlier work.
Assay [3] deals with experimental kidney as well as liver fibrosis. Also noted: method as in PMID 29454750, PMID 30093459. Particulars: cited from earlier work.
Assay [4] relates to patients with NASH. Also noted: method as in PMID 28833331, PMID 31943293. Particulars: early data from a clinical trial in patients with NASH; cited from earlier work.
The subject of assay [5] is human neutrophils. Kind of assay: Human neutrophil chemotaxis towards GPR84 agonists. Conditions: embelin 5 µM. Type of assay: cell-based.
In assay [6] the test system is CD115+ monocytes from mouse bone marrow. Kind of assay: Transwell chemotaxis of murine bone-marrow monocytes. Type of assay: cell-based. Conditions: 3-µM embelin, 2 h. As to the method: (§1) Bone marrow of the untreated WT mice at 8 weeks of age was used to isolate the immune cells for transwell migration assays. A single cell suspension was achieved by flushing cold RPMI-1640 through the bones, and grinding the received bone marrow through a 70-µm cell strainer. After lysis of red blood cells by Pharmlyse (BD Biosciences, San Jose, CA, USA), 1 × 10^6 cells in RPMI-1640 were placed in the upper compartment of the 5-µm transwell migration chamber. Migration was analyzed towards stimulation with a 3-µM embelin, a surrogate GPR84 agonist, or a 100-µM myristic acid (an MCFA) dissolved in combination with bovine serum albumin (BSA) in the lower compartment. The chemotactic cytokines, 5 nM CCL2 or 1 nM CXCL1, were used as positive controls for monocyte or neutrophil migration, respectively. After 2 h of incubation at 37 °C, the cells in the lower compartment were analyzed by flow cytometry.

The test system of assay [7] is neutrophils from mouse bone marrow. Kind of assay: Transwell chemotaxis of murine bone-marrow neutrophils. Type of assay: cell-based. Conditions: 3-µM embelin, 2 h. On the procedure: as §1
For assay [8], the system named is C57BL6/J wildtype mice, acute CCl4 liver injury. The assay is described as follows: CCl4-induced acute liver injury in mice. Conditions: 36 h after single IP CCl4. The class given is in vivo, mouse.
Assay [9] relates to C57BL6/J wildtype mice, MCD diet. Kind of assay: MCD diet-induced steatohepatitis and fibrosis in mice. Conditions: MCD diet 8 weeks, treatment last 4 weeks; GPR84 antagonists 30 mg/kg PO q.d., selonsertib 15 mg/kg PO b.i.d. The class given is in vivo, mouse.
For assay [10], the system named is C57BL6/J wildtype mice, chronic CCl4. The assay is described as follows: CCl4-induced chronic liver injury / fibrosis in mice. The class given is in vivo, mouse. Conditions: CCl4 IP twice per week 8 weeks, treatment last 4 weeks; CpdA 30 mg/kg q.d., selonsertib 15 mg/kg b.i.d.
The mark [11] stands for this setting: GPR84 antagonists 30 mg/kg PO, selonsertib 15 mg/kg PO.

T1 sequence (Q8CIM5 whole entry): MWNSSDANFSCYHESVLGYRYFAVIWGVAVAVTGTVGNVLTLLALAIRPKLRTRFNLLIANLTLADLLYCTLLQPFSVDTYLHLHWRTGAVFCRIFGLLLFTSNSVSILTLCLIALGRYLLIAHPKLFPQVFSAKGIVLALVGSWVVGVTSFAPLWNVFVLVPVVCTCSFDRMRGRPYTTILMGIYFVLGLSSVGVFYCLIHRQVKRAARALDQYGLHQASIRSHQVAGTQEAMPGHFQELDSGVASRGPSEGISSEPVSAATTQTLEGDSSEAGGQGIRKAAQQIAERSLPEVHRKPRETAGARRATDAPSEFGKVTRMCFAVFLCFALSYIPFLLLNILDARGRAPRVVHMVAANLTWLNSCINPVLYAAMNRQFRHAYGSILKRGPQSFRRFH

Consider `CCCCCCCCCC(=O)O` [Capric acid], for which the “EC80 of agonist in cAMP HTRF assay” value in [1] is given as “cAMP HTRF assay (IC50 nM) CHO-K1-mGPR84 cell membrane, Capric acid (EC80 = 61.7 µM)”.
`O=c1nc(OC[C@@H]2COCCO2)cc2n1CCc1cc(C#CC3CC3)ccc1-2` [GLPG1205]: the lung fibrosis result in assay [2] is given as “reduced lung fibrosis”.
Take `CCCCCc1cccc(CC(=O)O)c1` [PBI-4050, 3-pentylbenzeneacetic acid sodium salt]: in [3], the “experimental kidney and liver fibrosis” value is “reduced experimental kidney as well as liver fibrosis”.
On to `CCCCOCCOc1ccc(-c2ccc3c(c2)/C=C(/C(=O)Nc2ccc([S@@+]([O-])Cc4cncn4CCC)cc2)CCCN3CC(C)C)cc1` [cenicriviroc], for which the antifibrotic activity entry in assay [4] is listed as “effective antifibrotic activity”.
In the case of `CCCCCCCCCCCC1=C(O)C(=O)C=C(O)C1=O` [embelin], the “induction of human neutrophil migration by agonist” value in assay [5] is “strongly induced”. Besides, the “stimulation of mouse monocyte migration by agonist” value in assay [6] was “stimulated”. In addition, in assay [7], the “attraction of mouse neutrophils by agonist” value was “attracted”.
`Cc1cc(F)c(C(=O)Nc2cccc(-c3nncn3C(C)C)n2)cc1-n1cnc(C2CC2)c1` [selonsertib]: the “extent of acute liver injury (necrotic areas on histology, serum ALT)” value in assay [8] (GPR84 antagonists 30 mg/kg PO at 0 h, 24 h, selonsertib 15 mg/kg PO at 0, 12, 24 h) is “neither significantly modified”. In addition, in [8] (setting [11]), the “MoMF infiltration (flow cytometry)” value is “but not selonsertib, significantly reduced”; the “hepatic macrophage accumulation (F4/80 immunohistochemistry)” value is “neither significantly modified”; the “hepatic neutrophil infiltration (flow cytometry)” value is “but not selonsertib, significantly reduced”. Also, in [9], the “liver fibrosis (Sirius-Red-stained liver sections and hepatic hydroxyproline content)” value was “reduced”. Moreover, in assay [10], the “liver fibrosis (Sirius-Red-staining and hepatic hydroxyproline content)” value is recorded as “markedly reduced”; the “neutrophils and liver lymphocytes” value was “largely unaltered”; the “numbers of hepatic macrophages, particularly MoMF” value was “lower numbers”; the “toxic injury according to histology or ALT levels” value is reported as “unaffected”.
